Data on 32 molecules can be found in ChEMBL document CHEMBL5634089, “Design, synthesis and evaluation of 2-pyrimidinylindole derivatives as anti-obesity agents by regulating lipid metabolism” (Eur J Med Chem, 2023).

For data set [1], the system named is 3T3-L1. In words: Anti-adipogenic activity in mouse 3T3-L1 cells assessed as lipid-lowering activity at 1 uM measured after 9 days by Oil Red O staining based microplate reader analysis relative to control. The format is functional. The conditions noted are these: time 9 day.
Data set [2] concerns 3T3-L1. Put plainly: Anti-adipogenic activity in mouse 3T3-L1 cells assessed as lipid-lowering activity measured after 9 days by Oil Red O staining based microplate reader analysis. Type of data set: functional, cell-based. The conditions noted are these: 3T3-L1, 216 h.
Data set [3] can be described thus: Cytotoxicity against mouse 3T3-L1 cells assessed as reduction in cell viability incubated for 24 hrs by Sulforhodamine B assay. The format is toxicity, cell-based. On the technique in general: In SRB staining, fixed cells bind dye roughly in proportion to their protein.
Data set [4] in a line: Therapeutic index, ratio of IC50 for cytotoxicity against mouse 3T3-L1 cells to EC50 for anti-adipogenic in mouse 3T3-L1 cells. Type of data set: toxicity, cell-based. To be noted: read-out: Ratio IC50/EC50.
Data set [5] can be described thus: Half life in Sprague-Dawley rat at 2 mg/kg, iv administered for 24 hrs by LC-MS/MS analysis. The format is ADME, organism-based. The conditions noted are these: in vivo.
Data set [6] is described as follows: AUC (0 to t) in Sprague-Dawley rat at 2 mg/kg, iv administered for 24 hrs by LC-MS/MS analysis. The conditions noted are these: in vivo. The format is ADME, organism-based.
Data set [7] can be described thus: AUC (0 to infinity) in Sprague-Dawley rat at 2 mg/kg, iv administered for 24 hrs by LC-MS/MS analysis. Type of data set: ADME, organism-based. To be noted: in vivo.
A short description of data set [8]: MRT (0 to t) in Sprague-Dawley rat at 2 mg/kg, iv administered for 24 hrs by LC-MS/MS analysis. To be noted: in vivo. Type of data set: ADME, organism-based.
Data set [9] is described as follows: Apparent volume of distribution during terminal phase in Sprague-Dawley rat at 2 mg/kg, iv administered for 24 hrs by LC-MS/MS analysis. Type of data set: ADME, organism-based. The conditions noted are these: in vivo.
Data set [10] is described as follows: Half life in Sprague-Dawley rat at 5 mg/kg, po administered for 24 hrs by LC-MS/MS analysis. The format is ADME, organism-based. The conditions noted are these: in vivo.
Data set [11] can be described thus: Tmax in Sprague-Dawley rat at 5 mg/kg, po administered for 24 hrs by LC-MS/MS analysis. The format is ADME, organism-based. To be noted: in vivo.
Data set [12] in a line: Cmax in Sprague-Dawley rat at 5 mg/kg, po administered for 24 hrs by LC-MS/MS analysis. The format is ADME, organism-based. To be noted: in vivo.
Data set [13] is described as follows: AUC (0 to t) in Sprague-Dawley rat at 5 mg/kg, po administered for 24 hrs by LC-MS/MS analysis. The conditions noted are these: in vivo. Type of data set: ADME, organism-based.
Data set [14] is described as follows: AUC (0 to infinity) in Sprague-Dawley rat at 5 mg/kg, po administered for 24 hrs by LC-MS/MS analysis. Type of data set: ADME, organism-based. To be noted: in vivo.
Data set [15] is described as follows: MRT (0 to t) in Sprague-Dawley rat at 5 mg/kg, po administered for 24 hrs by LC-MS/MS analysis. The format is ADME, organism-based. The conditions noted are these: in vivo.
Data set [16] is described as follows: Apparent volume of distribution during terminal phase in Sprague-Dawley rat at 5 mg/kg, po administered for 24 hrs by LC-MS/MS analysis. Type of data set: ADME, organism-based. To be noted: in vivo, read-out: Vz/F.
Data set [17] in a line: Apparent oral clearance in Sprague-Dawley rat at 5 mg/kg, po administered for 24 hrs by LC-MS/MS analysis. The format is ADME, organism-based. To be noted: in vivo.
Data set [18] in a line: Oral bioavailability (0 to t) in Sprague-Dawley rat at 5 mg/kg administered for 24 hrs by LC-MS/MS analysis. The format is ADME, organism-based. The conditions noted are these: in vivo.
A short description of data set [19]: Oral bioavailability (0 to infinity) in Sprague-Dawley rat at 5 mg/kg administered for 24 hrs by LC-MS/MS analysis. The conditions noted are these: in vivo. The format is ADME, organism-based.
A short description of data set [20]: Aqueous solubility of compound incubated for 24 hrs by HPLC analysis. The format is physicochemical. To be noted: aqueous medium.

In brackets after ≈: the same amount, converted by molar mass.

As usually defined, the EC50 is the midpoint of the concentration-response curve. The IC50 is the midpoint of a concentration-inhibition curve. In general, half-life refers to how long it takes for the measured level to halve. Lower therefore signals rapid decline. As usually defined, the AUC(0-t) is exposure summed from dosing to a finite time, without extrapolation to infinity. The low end stands for low exposure, the high end for high exposure. Usually AUC(0-inf) stands for total exposure, with the tail of the curve extrapolated. A high value points to more exposure. For orientation: MRT last means the average time that molecules of a dose stay in the body. As usually defined, the Tmax is the time at which the peak concentration occurs. A word on the Cmax: it is the maximum level reached in the sampled fluid or tissue. One may read the CL/F as clearance divided by bioavailability, as obtained after extravascular dosing. A word on the bioavailability: it is the share of a dose that reaches the circulation, judged against a reference dose that is usually intravenous. Low readings indicate poor availability, high ones good availability. The solubility is the concentration that dissolves in the medium under given conditions. Read a low solubility as little dissolved substance.

With `CC(=O)c1c(-c2ncc(F)c(NCCCN(C)C)n2)[nH]c2ccccc12`, the Activity in data set [1] worked out at 58%.

Consider `CC(=O)c1c(-c2nc(C)cc(NCCN3CCCC3)n2)[nH]c2ccccc12`, for which the Activity in [1] amounted to 98.3%. The EC50 in [2] amounted to 89 nM. Further, in data set [3], the half-inhibitory concentration (IC50) at 24 h came to 18000 nM. The selectivity ratio in data set [4] was 202.

As for `CC(=O)c1c(-c2ncc(F)c(NCCN3CCCC3)n2)[nH]c2ccccc12`, in data set [1], the Activity was 102.6%. Moreover, the EC50 in data set [2] turned out to be 180 nM. In addition, the IC50 at 24 h in data set [3] turned out to be 37400 nM. For the same molecule, in [4], the selectivity ratio came to 208.

For the molecule `CC(=O)c1c(-c2nc(NCCN3CCCC3)cc(-c3ccccc3)n2)[nH]c2ccccc12`, in data set [1], the Activity was found to be 5.9%.

Take `CC(=O)c1c(-c2nc(NCCCN(C)C)cc(-c3ccccc3)n2)[nH]c2ccccc12`: in data set [1], the Activity worked out at 26.9%.

With `CC(=O)c1c(-c2ncc(C)c(NCCN3CCCC3)n2)[nH]c2ccccc12`, in data set [1], the Activity is 99.8%. The EC50 in data set [2] is 111 nM. Also, in [3], the IC50 at 24 h worked out at 23400 nM. Besides, the selectivity ratio in data set [4] was 212.

On to `CC(=O)c1c(-c2nc(NCCN3CCCC3)c3ccccc3n2)[nH]c2ccccc12`, for which, in data set [1], the Activity turned out to be 99.5%. In addition, the EC50 in [2] turned out to be 45 nM. Moreover, the half-life in [5] is 12.4 h; in [10], 6.5 h. Moreover, the concentration for half-maximal inhibition (IC50) at 24 h in data set [3] was 8490 nM. In addition, in [4], the selectivity ratio was 190. The AUC(0-t) at 24 h in data set [6] was 603 ng·h/mL; in data set [13] it was 574 ng·h/mL. The AUC(0-inf) in [7] turned out to be 749 ng·h/mL; in [14] it was 616 ng·h/mL. For the same molecule, the MRT last at 24 h in data set [8] amounted to 14 h; in data set [15], 9.1 h. In addition, the Vz/F in data set [9] turned out to be 47.8 L/kg. The Tmax in data set [11] was found to be 1.2 h. The Cmax in data set [12] turned out to be 63.7 ng/mL. Moreover, in [16], the Vd/F is 77.8 L/kg. The CL/F in data set [17] was 137 mL/min/kg. Also, the bioavailability in data set [18] worked out at 38.1%; in [19] it was 32.9%. In data set [20], this molecule returned a solubility at 24 h of 8 µg/mL (≈ 20 µM).

Take `CC(=O)c1c(-c2nc(NCCCN(C)C)cc(-c3ccc(C(C)(C)C)cc3)n2)[nH]c2ccccc12`: the Activity in [1] was found to be 20.5%.

As to `CC(=O)c1c(-c2nc3c(c(NCCCN(C)C)n2)CCCC3)[nH]c2ccccc12`, the Activity in [1] is recorded as 28%.

As for `CCc1cc(NCCN2CCCC2)nc(-c2[nH]c3ccccc3c2C(C)=O)n1`, the Activity in data set [1] stood at 58.5%.

Regarding `CC(=O)c1c(-c2nc(NCCCN(C)C)cc(C(F)(F)F)n2)[nH]c2ccccc12`, the Activity in [1] was 15.5%.

For `CC(=O)c1c(-c2nc(NCCN(C)C)c3ccccc3n2)[nH]c2ccccc12`, in data set [1], the Activity was found to be 100.5%. For the same molecule, in data set [2], the concentration giving a half-maximal response (EC50) was found to be 78 nM. For the same molecule, the IC50 at 24 h in data set [3] is 6310 nM. In data set [4], the selectivity ratio was 81.

Turning to `CC(=O)c1c(-c2nc(NCCCN(C)C)cc(-c3cccnc3)n2)[nH]c2ccccc12`, the Activity in data set [1] came to 48.2%.

As for `CC(=O)c1c(-c2nccc(NCCCN(C)C)n2)[nH]c2ccccc12`, in data set [1], the Activity turned out to be 79.5%.

On to `CC(=O)c1c(-c2nc3c(c(NCCN4CCCC4)n2)CCCC3)[nH]c2ccccc12`, for which the Activity in data set [1] was 20.5%.

As to `COc1cnc(-c2[nH]c3ccccc3c2C(C)=O)nc1NCCCN1CCCC1`, the Activity in [1] is 49.7%.

Take `CCc1cc(NCCCN(C)C)nc(-c2[nH]c3ccccc3c2C(C)=O)n1`: the Activity in data set [1] turned out to be 73.8%.

For the molecule `CC(=O)c1c(-c2nc(C)c(C)c(NCCCN(C)C)n2)[nH]c2ccccc12`, the Activity in data set [1] was found to be 92.1%. The EC50 in data set [2] was determined as 509 nM. In data set [3], the IC50 at 24 h was 30400 nM. Besides, the selectivity ratio in [4] came out at 60.

Take `CC(=O)c1c(-c2nc(NCCN3CCCC3)c3ncn(C)c3n2)[nH]c2ccccc12`: the Activity in [1] turned out to be 99.5%. In addition, the EC50 in data set [2] stood at 295 nM. Besides, the 50% inhibitory concentration (IC50) at 24 h in data set [3] turned out to be 65500 nM. Besides, the selectivity ratio in data set [4] came out at 222.

As for `CC(=O)c1c(-c2nc(NCCCN(C)C)c3ncn(C)c3n2)[nH]c2ccccc12`, the Activity in data set [1] was determined as 99.9%. In addition, the EC50 in data set [2] came to 309 nM. Besides, in data set [3], the IC50 at 24 h came to 57700 nM. For the same molecule, the selectivity ratio in [4] came to 187.

With `CC(=O)c1c(-c2nc(C)cc(NCCCN(C)C)n2)[nH]c2ccccc12`, the Activity in data set [1] was 99.8%. For the same molecule, the EC50 in [2] is 225 nM. Moreover, the IC50 at 24 h in data set [3] was determined as 33900 nM. Moreover, the selectivity ratio in data set [4] amounted to 151.

In the case of `COc1cnc(-c2[nH]c3ccccc3c2C(C)=O)nc1NCCN1CCCC1`, the Activity in [1] amounted to 48.3%.

Regarding `CC(=O)c1c(-c2nc(O)cc(NCCCN(C)C)n2)[nH]c2ccccc12`, the Activity in data set [1] is listed as -3.1%.

On to `CC(=O)c1c(-c2nc(NCCN(C)C)c3cccnc3n2)[nH]c2ccccc12`, for which, in data set [1], the Activity was determined as 22.4%.

In the case of `CC(=O)c1c(-c2nc(NCCN3CCCC3)c3cccnc3n2)[nH]c2ccccc12`, the Activity in data set [1] is reported as 16.8%.

For `CC(=O)c1c(-c2nc3c(c(NCCN(C)C)n2)COC3)[nH]c2ccccc12`, the Activity in data set [1] worked out at 46.9%.

Regarding `CC(=O)c1c(-c2nc3c(c(NCCN(C)C)n2)CNCC3)[nH]c2ccccc12`, in [1], the Activity was determined as 25.1%.

As to `CC1=C(O)C(=O)C=C2C1=CC=C1[C@@]2(C)CC[C@@]2(C)[C@@H]3C[C@](C)(C(=O)O)CC[C@]3(C)CC[C@]12C` [CELASTROL], the EC50 in data set [2] was determined as 99 nM. In data set [3], the IC50 at 24 h worked out at 730 nM. Besides, the selectivity ratio in [4] was 7.

`COc1cnc(-c2[nH]c3ccccc3c2C(C)=O)nc1NCCCN(C)C`: the Activity in [1] came out at 54.4%.

Turning to `CC(=O)c1c(-c2nc(NCCN3CCCC3)cc(C(F)(F)F)n2)[nH]c2ccccc12`, the Activity in data set [1] came to 54.4%.

For the molecule `CC(=O)c1c(-c2ncc(C)c(NCCCN(C)C)n2)[nH]c2ccccc12`, the Activity in [1] is listed as 101.8%. For the same molecule, the EC50 in data set [2] stood at 127 nM. In addition, in data set [3], the IC50 at 24 h was determined as 32200 nM. Also, in data set [4], the selectivity ratio was found to be 254.

With `CC(=O)c1c(-c2nccc(NCCN(C)C)n2)[nH]c2ccccc12`, the Activity in data set [1] came to 103.9%. For the same molecule, the EC50 in data set [2] was 254 nM. In addition, the IC50 at 24 h in data set [3] came to 28400 nM. In addition, the selectivity ratio in [4] is 112.
